Where two headings read alike, the source gives them in different places.
Experiments:
[1] = tested on: human multiple myeloma cell line, OPM-2; test: Cell viability assay (OPM-2 10 FBS), CellTiter-Glo; format: cell-based
Procedure, shortened: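 OPM-2 cells at 3000 cells/well in RPMI 1640 with 10% FBS were exposed to serially diluted compounds for 16 h at 37 °C, 5% CO2.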

[2] = target: recombinant human Mcl-1 (residues 171-327) / Bim interaction (Homo sapiens (Human), UniProt Q07820); test: biochemical; format: binding; conditions: TR-FRET, Mcl-1(171-327) / biotin-Bim (51-76); read-out: Mcl-1 HTRF IC50
recombinant human Mcl-1 (residues 171-327) / Bim interaction, sequence (Q07820 171-327): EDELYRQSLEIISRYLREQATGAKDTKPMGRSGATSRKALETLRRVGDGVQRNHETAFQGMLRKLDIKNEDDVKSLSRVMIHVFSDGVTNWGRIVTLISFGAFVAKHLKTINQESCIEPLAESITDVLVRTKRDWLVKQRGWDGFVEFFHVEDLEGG

[3] = Homo sapiens, OPM-2, 16 h, read-out: OPM-2 10% FBS IC50 IP, OPM-2 cells, 10% FBS, 16 h, CellTiter-Glo
[4] = read-out: OPM-2 10% FBS IC50 IP, OPM-2 cells, 10% FBS, 16 h, CellTiter-Glo

| Compound | IC50 [1, 3] | IC50 [2] | IC50 [1, 4] |
| --- | --- | --- | --- |
| Cc1ccc([C@]2(O)/C=C/C[C@H](C)[C@@H](C)S(=O)(=O)NC(=O)c3ccc4c(c3)N(C[C@@H]3CC[C@H]32)C[C@@]2(CCCc3cc(Cl)ccc32)CO4)nc1 (single isomer, unassigned) [Example 100439] | 2640 nM | 0.619 nM | – |
| CO[C@@]1(C[C@@H](O)C2CC2)/C=C/C[C@H](C)[C@@H](C)S(=O)(=O)NC(=O)c2ccc3c(c2)N(C[C@@H]2CC[C@H]21)C[C@@]1(CCCc2cc(Cl)ccc21)CO3 (single isomer, unassigned) [Example 100460] | 433 nM | 0.095 nM | – |
| CO[C@@]1(C[C@@H](O)C2CC2)/C=C/C[C@H](C)[C@@H](C)S(=O)(=O)NC(=O)c2ccc3c(c2)N(C[C@@H]2CC[C@H]21)C[C@@]1(CCCc2cc(Cl)ccc21)CO3 (single isomer, unassigned) [Example 100461] | – | 0.042 nM | 382 nM |
| C[C@@H]1[C@@H](C)C/C=C/[C@@](C)(OCc2cc(F)cc(F)c2)[C@@H]2CC[C@H]2CN2C[C@@]3(CCCc4cc(Cl)ccc43)COc3ccc(cc32)C(=O)NS1(=O)=O (single isomer, unassigned) [Example 100474] | 387 nM | 0.405 nM | – |
| CO[C@@]1(CC(=O)[C@H](C)CN(C)C)/C=C/C[C@H](C)[C@@H](C)S(=O)(=O)NC(=O)c2ccc3c(c2)N(C[C@@H]2CC[C@H]21)C[C@@]1(CCCc2cc(Cl)ccc21)CO3 (single isomer, unassigned) [Example 100478] | 4090 nM | 3.47 nM | – |
| CO[C@@]1(CC(=O)N2CCN(C)C[C@H]2C)/C=C/C[C@H](C)[C@@H](C)S(=O)(=O)NC(=O)c2ccc3c(c2)N(C[C@@H]2CC[C@H]21)C[C@@]1(CCCc2cc(Cl)ccc21)CO3 (single isomer, unassigned) [Example 100479] | – | 0.758 nM | 332 nM |
| CO[C@@]1(CC(=O)N2CCN(C)C[C@H]2C)/C=C/C[C@H](C)[C@@H](C)S(=O)(=O)NC(=O)c2ccc3c(c2)N(C[C@@H]2CC[C@H]21)C[C@@]1(CCCc2cc(Cl)ccc21)CO3 (single isomer, unassigned) [Example 100480] | – | 0.176 nM | 221 nM |
| CC[C@]1(OCCN2CCOCC2)/C=C/C[C@H](C)[C@@H](C)S(=O)(=O)NC(=O)c2ccc3c(c2)N(C[C@@H]2CC[C@H]21)C[C@@]1(CCCc2cc(Cl)ccc21)CO3 (single isomer, unassigned) [Example 100481] | 152 nM | 0.094 nM | – |
| CO[C@@]1([C@H](C)O)CCC[C@H](C)[C@@H](C)S(=O)(=O)NC(=O)c2ccc3c(c2)N(C[C@@H]2CC[C@H]21)C[C@@]1(CCCc2cc(Cl)ccc21)CO3 (single isomer, unassigned) [Example 100482] | 105 nM | 0.183 nM | – |
| CO[C@@]1([C@H](C)O)/C=C/C[C@H](C)[C@@H](C)S(=O)(=O)NC(=O)c2ccc3c(c2)N(C[C@@H]2CC[C@H]21)C[C@@]1(CCCc2cc(Cl)ccc21)CO3 (single isomer, unassigned) [Example 100486] | 102 nM | 0.381 nM | – |
| CO[C@@]1(C[C@H](O)c2ccccn2)/C=C/C[C@H](C)[C@@H](C)S(=O)(=O)NC(=O)c2ccc3c(c2)N(C[C@@H]2CC[C@H]21)C[C@@]1(CCCc2cc(Cl)ccc21)CO3 (single isomer, unassigned) [Example 100489] | – | 0.88 nM | 182 nM |
| CO[C@@]1(C[C@H](O)c2ccccn2)/C=C/C[C@H](C)[C@@H](C)S(=O)(=O)NC(=O)c2ccc3c(c2)N(C[C@@H]2CC[C@H]21)C[C@@]1(CCCc2cc(Cl)ccc21)CO3 (single isomer, unassigned) [Example 100490] | – | 0.292 nM | 511 nM |
| C[C@@H]1[C@@H](C)CCC[C@@]2(OCCO[C@H]2C=O)[C@@H]2CC[C@H]2CN2C[C@@]3(CCCc4cc(Cl)ccc43)COc3ccc(cc32)C(=O)NS1(=O)=O (single isomer, unassigned) [Example 100495] | 539 nM | 0.462 nM | – |
| C=CCOC[C@]1(O)/C=C/C[C@H](C)[C@@H](C)S(=O)(=O)NC(=O)c2ccc3c(c2)N(C[C@@H]2CC[C@H]21)C[C@@]1(CCCc2cc(Cl)ccc21)CO3 (single isomer, unassigned) [Example 100496] | 5060 nM | 2.67 nM | – |
| CO[C@@]1(c2nccs2)/C=C/C[C@H](C)[C@@H](C)S(=O)(=O)NC(=O)c2ccc3c(c2)N(C[C@@H]2CC[C@H]21)C[C@@]1(CCCc2cc(Cl)ccc21)CO3 (single isomer, unassigned) [Example 100497] | 106 nM | 0.064 nM | – |
| COC(OC)c1cncc([C@@]2(O)/C=C/C[C@H](C)[C@@H](C)S(=O)(=O)NC(=O)c3ccc4c(c3)N(C[C@@H]3CC[C@H]32)C[C@@]2(CCCc3cc(Cl)ccc32)CO4)c1 (single isomer, unassigned) [Example 100507] | 490 nM | 0.43 nM | – |
| COC(OC)c1cncc([C@]2(O)/C=C/C[C@H](C)[C@@H](C)S(=O)(=O)NC(=O)c3ccc4c(c3)N(C[C@@H]3CC[C@H]32)C[C@@]2(CCCc3cc(Cl)ccc32)CO4)c1 (single isomer, unassigned) [Example 100510] | 379 nM | 0.07 nM | – |

| Compound | IC50 [1, 3] | IC50 [2] | IC50 [1, 4] |
| --- | --- | --- | --- |
| COC(OC)c1cncc([C@@]2(OC)/C=C/C[C@H](C)[C@@H](C)S(=O)(=O)NC(=O)c3ccc4c(c3)N(C[C@@H]3CC[C@H]32)C[C@@]2(CCCc3cc(Cl)ccc32)CO4)c1 (single isomer, unassigned) [Example 100511] | 430 nM | 0.07 nM | – |
| COC(OC)c1cncc([C@]2(OC)/C=C/C[C@H](C)[C@@H](C)S(=O)(=O)NC(=O)c3ccc4c(c3)N(C[C@@H]3CC[C@H]32)C[C@@]2(CCCc3cc(Cl)ccc32)CO4)c1 (single isomer, unassigned) [Example 100514] | 231 nM | 0.088 nM | – |
| CO[C@]1(c2nccs2)/C=C/C[C@H](C)[C@@H](C)S(=O)(=O)NC(=O)c2ccc3c(c2)N(C[C@@H]2CC[C@H]21)C[C@@]1(CCCc2cc(Cl)ccc21)CO3 (single isomer, unassigned) [Example 100522] | 538 nM | 0.144 nM | – |
| C[C@@H]1[C@@H](C)C/C=C/[C@@](O)(c2ccc(F)nc2)[C@@H]2CC[C@H]2CN2C[C@@]3(CCCc4cc(Cl)ccc43)COc3ccc(cc32)C(=O)NS1(=O)=O (single isomer, unassigned) [Example 100530] | – | 0.171 nM | 448 nM |
| C[C@@H]1[C@@H](C)C/C=C/[C@@](O)(c2cncc(-c3ccccc3)c2)[C@@H]2CC[C@H]2CN2C[C@@]3(CCCc4cc(Cl)ccc43)COc3ccc(cc32)C(=O)NS1(=O)=O (single isomer, unassigned) [Example 100534] | 542 nM | 0.799 nM | – |
| CO[C@@]1(c2ccc(F)nc2)/C=C/C[C@H](C)[C@@H](C)S(=O)(=O)NC(=O)c2ccc3c(c2)N(C[C@@H]2CC[C@H]21)C[C@@]1(CCCc2cc(Cl)ccc21)CO3 (single isomer, unassigned) [Example 100535] | – | 0.57 nM | 964 nM |
| C[C@@H]1[C@@H](C)C/C=C/[C@@](O)(c2cnccc2F)[C@@H]2CC[C@H]2CN2C[C@@]3(CCCc4cc(Cl)ccc43)COc3ccc(cc32)C(=O)NS1(=O)=O (single isomer, unassigned) [Example 100536] | 826 nM | 0.204 nM | – |
| CO[C@@]1(c2cnccc2F)/C=C/C[C@H](C)[C@@H](C)S(=O)(=O)NC(=O)c2ccc3c(c2)N(C[C@@H]2CC[C@H]21)C[C@@]1(CCCc2cc(Cl)ccc21)CO3 (single isomer, unassigned) [Example 100538] | 2400 nM | 1.47 nM | – |
| CO[C@]1(c2cnc(Cl)n2C)/C=C/C[C@H](C)[C@@H](C)S(=O)(=O)NC(=O)c2ccc3c(c2)N(C[C@@H]2CC[C@H]21)C[C@@]1(CCCc2cc(Cl)ccc21)CO3 (single isomer, unassigned) [Example 100539] | 727 nM | 0.144 nM | – |
| C[C@@H]1[C@@H](C)C/C=C/[C@](O)(c2cnc(Cl)n2C)[C@@H]2CC[C@H]2CN2C[C@@]3(CCCc4cc(Cl)ccc43)COc3ccc(cc32)C(=O)NS1(=O)=O (single isomer, unassigned) [Example 100543] | 821 nM | 0.451 nM | – |
| C[C@@H]1[C@@H](C)C/C=C/[C@@](O)(c2cnc(Cl)n2C)[C@@H]2CC[C@H]2CN2C[C@@]3(CCCc4cc(Cl)ccc43)COc3ccc(cc32)C(=O)NS1(=O)=O (single isomer, unassigned) [Example 100551] | 142 nM | 0.174 nM | – |
| CO[C@]1(c2nccn2C)/C=C/C[C@H](C)[C@@H](C)S(=O)(=O)NC(=O)c2ccc3c(c2)N(C[C@@H]2CC[C@H]21)C[C@@]1(CCCc2cc(Cl)ccc21)CO3 (single isomer, unassigned) [Example 100553] | 2790 nM | 1.04 nM | – |
| Cc1ncc([C@@]2(O)/C=C/C[C@H](C)[C@@H](C)S(=O)(=O)NC(=O)c3ccc4c(c3)N(C[C@@H]3CC[C@H]32)C[C@@]2(CCCc3cc(Cl)ccc32)CO4)n1C (single isomer, unassigned) [Example 100555] | 113 nM | 0.101 nM | – |
| CO[C@@]1(c2nccn2C)/C=C/C[C@H](C)[C@@H](C)S(=O)(=O)NC(=O)c2ccc3c(c2)N(C[C@@H]2CC[C@H]21)C[C@@]1(CCCc2cc(Cl)ccc21)CO3 (single isomer, unassigned) [Example 100556] | 734 nM | 0.113 nM | – |
| COc1ccncc1[C@]1(O)/C=C/C[C@H](C)[C@@H](C)S(=O)(=O)NC(=O)c2ccc3c(c2)N(C[C@@H]2CC[C@H]21)C[C@@]1(CCCc2cc(Cl)ccc21)CO3 (single isomer, unassigned) [Example 100557] | 299 nM | 0.093 nM | – |
| CO[C@@]1(c2cnc(Cl)n2C)/C=C/C[C@H](C)[C@@H](C)S(=O)(=O)NC(=O)c2ccc3c(c2)N(C[C@@H]2CC[C@H]21)C[C@@]1(CCCc2cc(Cl)ccc21)CO3 (single isomer, unassigned) [Example 100558] | 274 nM | 0.086 nM | – |

Source: patent US10821115B2, “Compounds that inhibit Mcl-1 protein” (priority 2017, dated 2020)
